# Source: patent US6462173B1, “Inhibitors of phosphoserine and phosphothreonine-proline-specific isomerases” (Max-Planck-Gesellschaft zur Forderung der, priority 1997, dated 2002)
# What was measured:
# MPM-2 antigens = test: GST-Pin1 pull-down / depletion of MPM-2 antigens from HeLa cell extracts, MPM-2 immunoblotting; format: binding, human
# Procedure: To detect Pin1-binding proteins, either HeLa cells were lysed in or Xenopus extracts were diluted in a buffer (buffer A) containing 50 mM Tris-HCl, pH 8.0, 200 mM NaCl, 100 mM NaF, 1 mM sodium orthovanadate, 10% glycerol, 1% Triton X100, 10 μg/ml aprotinin, 50 μg/ml phenylmethylsulfonyl fluoride and 1 mM DTT. The lysates were preclarified with boiled S. aureus bacteria (CalBiochem) and then incubated with 10 μl of agarose beads containing various GST-Pin1 proteins or control GST for 2 h at 4° C. The precipitated proteins were washed 5 times in the same buffer and subjected to immunoblotting analysis. Immunoprecipitation and immunoblotting analysis using MPM-2 antibody (Davis et al. 1983), which was kindly provided by J. Kuang, Pin1 antibodies (Lu et al., 1996, kindly provided by M. White or newly generated), anti-phospho.Tyr antibody (UBI), anti-Cdc25C (Ogg, et al., 1994) (from H. Piwnica-Worms and Santa Cruz Biotechnology), anti-Cdc27, anti-Plk1 (Zymed), anti-Cdc2 (Solomon, M. J., M. Glotzer, T. H. Lee, M. Philippe and M. W. Kirschner. Cell 63:1013-1024 (1991), anti-human Myt1, anti-human cyclin B1 and anti-Xenopus cyclin B were performed, as described previously in Lu and Hunter, 1995; Lu et al., 1996).
# To determine whether GST-Pin1 can deplete MPM-2 antigens and to estimate what concentrations of Pin1 are required to completely deplete MPM-2 antigens, mitotic extracts were incubated with different amounts of GST-Pin1, followed by analyzing MPM-2 antigens remaining in the depleted supernatants. The total cellular Pin1 concentration in HeLa cells was estimated to be about 0.5 μM, based on immunoblotting analysis using anti-Pin1 antibodies with recombinant Pin1 protein as a standard.
# To determine if the Pin1 mutants interact with mitotic phosphoproteins, GST-Pin1, -Pin1^R68,69A and -Pin1^H59A fusion proteins were incubated with interphase or mitotic HeLa cell extracts and associated proteins subjected to MPM-2 immunoblotting analysis. […] A few proteins including the most strongly reacting p55 band could still be recognized. […] Thus, mutating the residues that are implicated in binding either the substrate's putative phosphate group or the substrate's Pro residue abolish the ability of Pin1 to bind MPM-2 antigens.
# Xenopus embryos = test: Microinjection of Xenopus embryos, cell cycle block; format: in vivo
# Procedure: Unfertilized eggs were incubated with sperm, dejellied, and 4 μM of the indicated protein (about 10 fold above the estimated endogenous levels) was injected in one cell of two cell stage embryos (30 embryos each protein). The injected embryos were allowed to develop at 18° C. to stage 8 and pictures were taken of typical embryos. The titration of Pin1 and the mutants was essentially as described above except that the indicated protein was injected into one cell of 4 cell stage (18 embryos each Pin1 concentration) to the indicated final concentration and allowed to develop for 3h. […] To be consistent, cell cycle blocked embryo's were scored as those that contained at least one cell on the injected side that was greater than 5 times larger than uninjected cells (FIG. 2).
# To examine whether increasing the concentration of Pin1 has similar biological effects in Xenopus, Pin1 or Pin1 mutants were injected into one cell of 2 cell stage embryos and allowed the embryos to develop for 3 h (about 5 divisions). […] In contrast, the same extracts containing 40 μM of either BSA or the mutant Pin1 proteins entered mitosis by 70 to 80 min as detected by nuclear envelope breakdown, spindle formation and high histone H1 kinase activity. […]
substance,measurement,setting,value
"Pin1: essential mitotic peptidyl-prolyl cis-trans isomerase, recombinant protein",depletion of MPM-2 antigens,"MPM-2 antigens; 8 μM GST-Pin1, mitotic extracts",depleted the majority of MPM-2 antigens
same,binding of MPM-2 antigens,"MPM-2 antigens; mitotic HeLa cell extracts, GST fusion proteins",specifically interacted with MPM-2 antigens
same,cleavage of injected cells,"Xenopus embryos; 4 μM final, one cell of 2 cell stage embryos, 3 h",failed to cleave or cleaved slowly
same,inhibition of the cell cycle,"Xenopus embryos; 10 μM, approximately 20 fold above estimated endogenous levels",completely inhibited the cell cycle
